# Experimental data as given in PubChem BioAssay AID1549 (Sanford-Burnham Center for Chemical Genomics, 2009).
# Active and inactive are the calls of the source. The rule behind the calls is not given here.
# Target: Influenza A virus M2 proton channel (A/TW/4845/1999 H1N1)
# Experiment: M2 proton channel binding, NMR based, influenza A virus H1N1 strain (AID 1549)
# Details: NMR binding screen, M2 protein
row,SMILES,Kd
1,OCc1ncoc1-c1ccccc1,> 4 mM (inactive)
2,Cn1nnc2cc(C(=O)NC3CCCCC3)ccc21,> 4 mM (inactive)
3,Cn1ncc(C(=O)O)c1-c1ccccc1,> 4 mM (inactive)
4,Nc1ccccc1C(=O)N1CCOCC1,> 4 mM (inactive)
5,NCc1ccc2sccc2c1,> 4 mM (inactive)
6,C/C(N)=C/C(=O)N1CCCCC1,> 4 mM (inactive)
7,O=C(c1cc(-c2ccccc2)on1)N1CCCC1,> 4 mM (inactive)
8,O=C1CSC(=O)N1CNc1ccccc1,> 4 mM (inactive)
9,O=C(Nc1ccon1)c1ccc(Br)o1,> 4 mM (inactive)
10,COCc1c(CN)cnc(C)c1N,> 4 mM (inactive)
11,CC1CN(Cc2ccccn2)CCC1=O (stereo not drawn),> 4 mM (inactive)
12,CC(=O)c1cccc(NC(=O)NN2CCOCC2)c1,> 4 mM (inactive)
13,Cc1ccc(NC(=O)CC2NCCNC2=O)c(C)c1 (stereo not drawn),> 4 mM (inactive)
14,CC(C)C(C)/C=C/C(C)C1CCC2C3=CC=C4CC(O)CCC4(C)C3CCC21C (stereo not drawn),> 4 mM (inactive)
15,O=C(O)CCc1ccc2c(c1)OCO2,> 4 mM (inactive)
16,N#C/C(=C\c1ccc[nH]1)S(=O)(=O)c1ccccc1,> 4 mM (inactive)
17,Nc1cc(F)cc(F)c1,> 4 mM (inactive)
18,COC(=O)Cc1csc(N)n1,> 4 mM (inactive)
19,O=C1CSC(=S)N1Cc1cccnc1,> 4 mM (inactive)
20,Nc1nc2[nH]c(=O)c(=O)[nH]c2c(=O)[nH]1,> 4 mM (inactive)
21,O=C1Nc2ccccc2C1C1(O)C(=O)Nc2ccc(F)cc21 (stereo not drawn),> 4 mM (inactive)
22,O=C(CC1Nc2ccccc2NC1=O)Nc1ccc(O)cc1 (stereo not drawn),> 4 mM (inactive)
23,[O-][n+]1c2ccccc2[n+]([O-])c2cc(O)ccc21,> 4 mM (inactive)
24,CC(=O)C1CCC2C3CCC4C[C@H](O)CCC4(C)C3C[C@H](O)C12C (stereo partly drawn),> 4 mM (inactive)

row,SMILES,Kd
1,COc1ccc2c(c1)OC[C@@H](Cc1ccc(OC)c(OC)c1)[C@@H]2O,> 4 mM (inactive)
2,Nc1ccccc1C(=O)CC(N)C(=O)O (stereo not drawn),> 4 mM (inactive)
3,c1ccc2[nH]c(-c3cscn3)nc2c1,> 4 mM (inactive)
4,COc1ccc(-c2ccc(=O)n(CC(N)=O)n2)cc1,> 4 mM (inactive)
5,NCc1n[nH]c(=O)c2ccccc12,> 4 mM (inactive)
6,O=C1CN(c2ccccc2)CC(=O)N1,> 4 mM (inactive)
7,Cn1nnc2cc(C(=O)NCc3ccco3)ccc21,> 4 mM (inactive)
8,CC(=O)Oc1ccccc1N1C(=O)C=CC1=O,> 4 mM (inactive)
9,O=c1c2c(nc3nc(COc4ccccc4)[nH]n13)CCC2,> 4 mM (inactive)
10,Cc1nnc(SCC(N)=O)c2ccccc12,> 4 mM (inactive)
11,C=C(C)[C@H]1Cc2c(ccc3c2O[C@@H]2COc4cc(OC)c(OC)cc4[C@@H]2C3=O)O1,> 4 mM (inactive)
12,O=C(O)CN1C(=O)c2cccc([N+](=O)[O-])c2C1=O,> 4 mM (inactive)
13,NC(=O)c1c[nH]c2ccccc12,> 4 mM (inactive)
14,OC1CCNC2CCCCC12 (stereo not drawn),> 4 mM (inactive)
15,Cn1c(NCC(=O)O)nc2c1c(=O)[nH]c(=O)n2C,> 4 mM (inactive)
16,COC1=CC(=O)C[C@@H](C)[C@]12Oc1c(Cl)c(OC)cc(OC)c1C2=O,> 4 mM (inactive)
17,COc1ccc2c(c1)=C(c1sc(N)nc1O)C(=O)N=2,> 4 mM (inactive)
18,CN(C)C1CCS(=O)(=O)C1 (stereo not drawn),> 4 mM (inactive)
19,O=C1NC(=O)C(c2ccccc2)C(=O)N1,> 4 mM (inactive)
20,CN(C)C(=O)c1ccccc1-c1ccccc1,> 4 mM (inactive)
21,COc1cnn(-c2ccccc2)c(=O)c1N(C)C,> 4 mM (inactive)
22,C/C=C(\C)C(=O)O[C@@H]1c2c(ccc3ccc(=O)oc23)OC(C)(C)[C@@H]1OC(C)=O,> 4 mM (inactive)
23,COc1ccccc1-c1noc(-c2ccncc2)n1,> 4 mM (inactive)
24,CCC1(CC)C(=O)N=C(N)NC1=O,> 4 mM (inactive)

row,SMILES,Kd
1,COc1cc(OC)c2c(=O)c(-c3ccc4c(c3)OCO4)coc2c1,> 4 mM (inactive)
2,CC(=O)Oc1cc(OC(C)=O)c2c(c1)O[C@H](c1ccc(OC(C)=O)c(OC(C)=O)c1)[C@H](OC(C)=O)C2,> 4 mM (inactive)
3,Cc1occc1C(=O)NCc1ccccc1F,> 4 mM (inactive)
4,COc1ccc([C@@H](C)C(=O)c2ccc(O)cc2O)cc1,> 4 mM (inactive)
5,OCc1csc(-c2ccccc2)n1,> 4 mM (inactive)
6,OC(CCl)c1ccc(-n2cncn2)cc1 (stereo not drawn),> 4 mM (inactive)
7,CC(=O)O[C@@H]1CC2C(C)(C)[C@@H](O)CC[C@]2(C)C2CC[C@@]3(C)[C@H](c4ccoc4)OC(=O)[C@H]4O[C@]43[C@@]21C (stereo partly drawn),> 4 mM (inactive)
8,O=C(NCc1cccc(Cl)c1)c1ccco1,> 4 mM (inactive)
9,CCOC(=O)c1c(SC)nc(=O)[nH]c1C,> 4 mM (inactive)
10,COc1ccccc1NC(=O)C1CCCCC1,> 4 mM (inactive)
11,NC(=O)c1ccsc1NC(=O)c1cccnc1,> 4 mM (inactive)
12,O=S(=O)(Nc1cccnc1Cl)c1ccccc1,> 4 mM (inactive)
13,CN1CCN(C(=O)c2ccco2)CC1,> 4 mM (inactive)
14,CCC(=O)Nc1ccccc1NC(C)=O,> 4 mM (inactive)
15,NC(=O)c1cc2c(n(-c3ccccc3)c1=O)CCCC2=O,> 4 mM (inactive)
16,Cc1ccccc1C(=O)Nn1cnnc1,> 4 mM (inactive)
17,OCC1CNc2ccccc2O1 (stereo not drawn),> 4 mM (inactive)
18,CN1CCC(NC(=O)Cc2c(F)cccc2Cl)CC1,> 4 mM (inactive)
19,NCc1ccc(-c2ccccn2)s1,> 4 mM (inactive)
20,O=C(NCN1CCOCC1)c1cccnc1,> 4 mM (inactive)
21,Cc1ccc2cc(CO)ccc2n1,> 4 mM (inactive)
22,O=C(O)c1ccnc2ccccc12,> 4 mM (inactive)
23,COc1ccccc1NS(=O)(=O)c1c[nH]c(=O)[nH]c1=O,> 4 mM (inactive)
24,NC(=O)c1ccsc1NC(=O)C1=COCCO1,> 4 mM (inactive)

row,SMILES,Kd
1,CC(O)C(=O)N/N=C/c1cccs1 (stereo not drawn),> 4 mM (inactive)
2,Cc1cc(C(=O)Nc2nnc(C(F)(F)F)s2)no1,> 4 mM (inactive)
3,O=C(NC1=NCCS1)c1ccc2snnc2c1,> 4 mM (inactive)
4,CN1CC(=O)N=C1N,> 4 mM (inactive)
5,CC(=O)O[C@H]1C[C@@H](OC(C)=O)C(C)(C)C2C[C@@H](OC(C)=O)[C@@]3(C)C4=CC(=O)O[C@@H](c5ccoc5)[C@]4(C)CCC3[C@]21C (stereo partly drawn),> 4 mM (inactive)
6,c1ccc(CCNc2ncnc3nc[nH]c23)cc1,> 4 mM (inactive)
7,CCc1cc2c(SCC(=O)O)ncnc2s1,> 4 mM (inactive)
8,CC(=O)Oc1cc(-c2coc3cc(OC(C)=O)c(OC(C)=O)c(OC(C)=O)c3c2=O)cc(OC(C)=O)c1OC(C)=O,> 4 mM (inactive)
9,CSc1ccc(/C=c2\sc3ncnn3c2=O)cc1,> 4 mM (inactive)
10,C=CC(C1=CC(=O)C(OC)=CC1=O)c1ccc(O)cc1 (stereo not drawn),> 4 mM (inactive)
11,COc1cc(-c2coc3cc(OC)c(OC)c(OC)c3c2=O)cc(OC)c1OC,> 4 mM (inactive)
12,COc1cc(/C=C/C(=O)O)cc(OC)c1OC,> 4 mM (inactive)
13,Nc1cc(F)nc(F)n1,> 4 mM (inactive)
14,O=C(Nc1ccon1)c1ccc(Cl)s1,> 4 mM (inactive)
15,COc1ccc(/C=C2/SC(N)=NC2=O)c(OC)c1,> 4 mM (inactive)
16,NC(=S)NC1CCS(=O)(=O)C1 (stereo not drawn),> 4 mM (inactive)
17,NC(=O)CC1Sc2ccccc2NC1=O (stereo not drawn),> 4 mM (inactive)
18,CN1C(=O)/C(=C/c2ccc(O)cc2O)SC1=S,> 4 mM (inactive)
19,COC(=O)c1ccccc1NC(=O)c1cc[n+]([O-])cc1,> 4 mM (inactive)
20,OC/C=C/c1ccc(O)c(O)c1,> 4 mM (inactive)
21,Nc1oncc1-c1ccccn1,> 4 mM (inactive)
22,O=C(O)c1cc2ccccc2s1,> 4 mM (inactive)
23,O=C(O)CNc1ncnc2nc[nH]c12,> 4 mM (inactive)
24,O=C(O)c1ncoc1-c1ccccc1,> 4 mM (inactive)

row,SMILES,Kd
1,Cc1ccc(S(=O)(=O)CC(=O)N2CCCC2)cc1,> 4 mM (inactive)
2,C=C1C2CC[C@H]3[C@]4(C)C[C@H](OC5OC(CO)C(OS(=O)(=O)O)C(OS(=O)(=O)O)C5OC(=O)CC(C)C)C[C@@H](C(=O)O)[C@H]4CC[C@]3(C2)[C@H]1O (stereo partly drawn),> 4 mM (inactive)
3,O=CN1CCN(C(=O)c2ccccc2Cl)CC1,> 4 mM (inactive)
4,COC(=O)c1ccc(/C=C2/NC(=S)NC2=O)cc1,> 4 mM (inactive)
5,O=C(Nc1cccc(C(F)(F)F)c1)c1cccnc1,> 4 mM (inactive)
6,COc1ccc(N=C2NC(=O)CS2)cc1,> 4 mM (inactive)
7,CC(CCC(=O)O)[C@H]1CCC2C3CC[C@@H]4CCCC[C@]4(C)C3CC[C@@]21C (stereo partly drawn),> 4 mM (inactive)
8,CCc1ccc(/C=N/n2cnnc2)cc1,> 4 mM (inactive)
9,O=C1C=CC2=C3c4cc(O)c(O)cc4CC3(O)COC2=C1O (stereo not drawn),> 4 mM (inactive)
10,O=c1c2ccccc2nc2n1CCS2,> 4 mM (inactive)
11,COc1ccc(-c2cc(=O)c3c(O)cc(O[C@H]4O[C@H](CO[C@@H]5O[C@@H](C)[C@H](O)[C@@H](O)[C@H]5O)[C@@H](O)[C@H](O)[C@H]4O)cc3o2)cc1,> 4 mM (inactive)
12,Cc1nnc(SCC(=O)NC2CCCC2)[nH]c1=O,> 4 mM (inactive)
13,O=C1CSC(=Nc2cccc(C(=O)O)c2)N1,> 4 mM (inactive)
14,CC(=O)c1c(C)n([O-])c2ccccc2[n+]1=O,> 4 mM (inactive)
15,COc1ccc(C2(CN)CCOCC2)cc1OC,> 4 mM (inactive)
16,c1ccc(CNc2ncnc3nc[nH]c23)nc1,> 4 mM (inactive)
17,Nc1nc(O)c(C2=c3cc(Cl)ccc3=NC2=O)s1,> 4 mM (inactive)
18,O=C(NN1CCOCC1)c1ccccc1F,> 4 mM (inactive)
19,O=C(CN1C(=O)c2cccc3cccc(c23)C1=O)NO,> 4 mM (inactive)
20,O=C1CCCN1C(=O)CN1CCOCC1,> 4 mM (inactive)
21,c1coc(-c2nc(-c3ccncc3)no2)c1,> 4 mM (inactive)
22,CS(=O)(=O)c1cccc(C(=O)Nc2nccs2)c1,> 4 mM (inactive)
